Measured values: ChEMBL document CHEMBL1152346, “Hirseins A and B, daphnane diterpenoids from Thymelaea hirsuta that inhibit melanogenesis in B16 melanoma cells” (J Nat Prod, 2009)

Columns and labels:
B16 [1] = test: Inhibition of melanin production in mouse B16 cells at 0.1 uM after 48 hrs by spectrophotometry relative to control; format: functional; conditions: B16, 48 h
[2] = Cytotoxicity against mouse B16 cells assessed as viability at 0.1 uM after 48 hrs by viacount reagent staining technique relative to control; format: cell-based; conditions: read-out: Activity
B16 [3] = test: Inhibition of melanin production in mouse B16 cells at 100 uM after 48 hrs by spectrophotometry relative to control; format: functional; conditions: B16, 48 h

Structure (SMILES)	inhibition at 0.1 µM (B16 [1]) [%]	viability at 48 h, 0.1 µM [2] [%]	inhibition at 100 µM (B16 [3]) [%]
C=C(C)[C@@]12OC3(/C=C/CCCCC)O[C@@H]1[C@@H]1[C@@H]4O[C@]4(CO)[C@@H](O)[C@]4(O)C(=O)C(C)=C[C@H]4[C@@]1(O3)[C@H](C)[C@H]2OC(=O)/C=C/c1ccccc1 [HIRSEIN A]	37	99.3	–
C=C(C)[C@@]12OC3(CCCCCCCCC)O[C@@H]1[C@@H]1[C@@H]4O[C@]4(CO)[C@@H](O)[C@]4(O)C(=O)C(C)=C[C@H]4[C@@]1(O3)[C@H](C)[C@H]2OC(=O)/C=C/c1ccc(O)cc1 [HIRSEIN B]	26	97.5	–
OC[C@H]1O[C@@H](Oc2ccc(O)cc2)[C@H](O)[C@@H](O)[C@@H]1O [ARBUTIN]	–	–	33
